Laboratory results as given in US20170260178A1 (SPERO GYRASE, INC., priority 2012, published 2017).
In brackets after ≈: the same amount, converted by molar mass.

Experiments:
[1] = tested on: S. aureus (ATCC 29213); assay: Bacterial assay: MIC against S. aureus; assay type: cell-based, Staphylococcus aureus; conditions: for MIC: Staphylococcus aureus, ATCC29213, read-out: minimal inhibitory concentration (MIC)
[2] = tested on: S. pyogenes (ATCC 51339); assay: Bacterial assay: MIC against S. pyogenes; assay type: cell-based, Streptococcus pyogenes; conditions: for MIC: Streptococcus pyogenes, ATCC51339, read-out: minimal inhibitory concentration (MIC)

Row | Compound | MIC [1] [µg/mL] | MIC [2] [µg/mL] | minimal inhibitory concentration (MIC) ([1]; S. aureus ATCC 29213) [µg/mL] | minimal inhibitory concentration (MIC) ([2]; S. pyogenes ATCC 51339) [µg/mL]
1 | CCNC(=O)Nc1nc2cc(-c3cnc(C(C)(C)O)nc3)cc(-c3nccc(CN4CCOCC4)n3)c2s1 [Compound 101, 1-ethyl-3-[5-[2-(1-hydroxy-1-methyl-ethyl)pyrimidin-5-yl]-7-[4-(morpholinomethyl)pyrimidin-2-yl]-1,3-benzothiazol-2-yl]urea] | ≤ 1 | ≤ 1 |  | 
2 | CCNC(=O)Nc1nc2cc(-c3cnc(C(C)(C)O)nc3)cc(-c3cc(CN4CCS(=O)(=O)CC4)ccn3)c2s1 [Compound 191, 1-[7-[4-[(1,1-dioxo-1,4-thiazinan-4-yl)methyl]-2-pyridyl]-5-[2-(1-hydroxy-1-methyl-ethyl)pyrimidin-5-yl]-1,3-benzothiazol-2-yl]-3-ethyl-urea] | ≤ 1 | ≤ 1 |  | 
3 | CC(C)(O)c1ncc(-c2cc(-c3ccccn3)c3sc(NC(=O)NCCO)nc3c2)cn1 [Compound 5, 1-(2-hydroxyethyl)-3-[5-[2-(1-hydroxy-1-methyl-ethyl)pyrimidin-5-yl]-7-(2-pyridyl)-1,3-benzothiazol-2-yl]urea] | 16 (≈ 35.5 µM) | ≤ 1 |  | 
4 | CCNC(=O)Nc1nc2cc(-c3cnc(C(C)O)nc3)cc(OCc3ccc(C)nc3)c2s1 (stereo not shown) [Compound 14, 1-ethyl-3-[5-[2-(1-hydroxyethyl)pyrimidin-5-yl]-7-[(6-methyl-3-pyridyl)methoxy]-1,3-benzothiazol-2-yl]urea] | ≤ 1 | ≤ 1 |  | 
5 | CCNC(=O)Nc1nc2cc(-c3cnc(C(C)(C)O)nc3)cc(-c3cncc(CN4CCOCC4)n3)c2s1 [Compound 102, 1-ethyl-3-[5-[2-(1-hydroxy-1-methyl-ethyl)pyrimidin-5-yl]-7-[6-(morpholinomethyl)pyrazin-2-yl]-1,3-benzothiazol-2-yl]urea] | 16 (≈ 29.9 µM) | 16 (≈ 29.9 µM) |  | 
6 | CCNC(=O)Nc1nc2cc(-c3cnc(C(C)O)nc3)cc(-c3cc(CN4CCC5(CC4)COC5)ccn3)c2s1 (stereo not shown) [Compound 112, 1-ethyl-3-[5-[2-(1-hydroxyethyl)pyrimidin-5-yl]-7-[4-(2-oxa-7-azaspiro[3.5]nonan-7-ylmethyl)-2-pyridyl]-1,3-benzothiazol-2-yl]urea] | ≤ 1 | ≤ 1 |  | 
7 | CCNC(=O)Nc1nc2cc(-c3cnc(C(C)(C)O)nc3)cc(-c3nccc(N4CCN(CCOC)CC4)n3)c2s1 [Compound 107, 1-ethyl-3-[5-[2-(1-hydroxy-1-methyl-ethyl)pyrimidin-5-yl]-7-[4-[4-(2-methoxyethyl)piperazin-1-yl]pyrimidin-2-yl]-1,3-benzothiazol-2-yl]urea] | ≤ 1 | ≤ 1 |  | 
8 | CCNC(=O)Nc1nc2cc(-c3cnc(C(C)O)nc3)cc(-c3nccc(N4CCC(C)(C(=O)O)CC4)n3)c2s1 (stereo not shown) [Compound 117, 1-[2-[2-(ethylcarbamoylamino)-5-[2-(1-hydroxyethyl)pyrimidin-5-yl]-1,3-benzothiazol-7-yl]pyrimidin-4-yl]-4-methyl-piperidine-4-carboxylic acid] | 16 (≈ 28.4 µM) | ≤ 1 |  | 
9 | CCCNC(=O)Nc1nc2cc(-c3cnc(C(C)(C)O)nc3)cc(-c3ccccn3)c2s1 [Compound 57, 1-[5-[2-(1-hydroxy-1-methyl-ethyl)pyrimidin-5-yl]-7-(2-pyridyl)-1,3-benzothiazol-2-yl]-3-propyl-urea] | ≤ 1 | 2 (≈ 4.46 µM) |  | 
10 | CCNC(=O)Nc1nc2cc(-c3cnc(C(C)(C)O)nc3)cc(-c3nccc(NCC(C)(C)O)n3)c2s1 [Compound 103, 1-ethyl-3-[5-[2-(1-hydroxy-1-methyl-ethyl)pyrimidin-5-yl]-7-[4-[(2-hydroxy-2-methyl-propyl)amino]pyrimidin-2-yl]-1,3-benzothiazol-2-yl]urea] | 2 (≈ 3.83 µM) | ≤ 1 |  | 
11 | CCNC(=O)Nc1nc2cc(-c3cnc(C(O)C(C)(C)C)nc3)cc(-c3ccccn3)c2s1 (stereo not shown) [Compound 60, 1-ethyl-3-[5-[2-(1-hydroxy-2,2-dimethyl-propyl)pyrimidin-5-yl]-7-(2-pyridyl)-1,3-benzothiazol-2-yl]urea] | ≤ 1 | ≤ 1 |  | 
12 | CCNC(=O)Nc1nc2cc(-c3cnc(C(C)(C)O)s3)cc(-c3ccccn3)c2s1 [Compound 48, 1-ethyl-3-[5-[2-(1-hydroxy-1-methyl-ethyl)thiazol-5-yl]-7-(2-pyridyl)-1,3-benzothiazol-2-yl]urea] | ≤ 1 | ≤ 1 |  | 
13 | CCNC(=O)Nc1nc2cc(-c3cnc(C(C)(C)O)nc3)cc(-c3cc(CN4CC(C)(O)C4)ccn3)c2s1 [Compound 2, 1-ethyl-3-[7-[4-[(3-hydroxy-3-methyl-azetidin-1-yl)methyl]-2-pyridyl]-5-[2-(1-hydroxy-1-methyl-ethyl)pyrimidin-5-yl]-1,3-benzothiazol-2-yl]urea] | ≤ 1 | ≤ 1 |  | 
14 | CCNC(=O)Nc1nc2cc(-c3cnc(C4(O)CCN(C)CC4)nc3)cc(-c3ccccn3)c2s1 [Compound 128, 1-ethyl-3-[5-[2-(4-hydroxy-1-methyl-4-piperidyl)pyrimidin-5-yl]-7-(2-pyridyl)-1,3-benzothiazol-2-yl]urea] | ≤ 1 | ≤ 1 |  | 
15 | CCNC(=O)Nc1nc2cc(-n3cc(C(C)O)nn3)cc(-c3ccccn3)c2s1 (stereo not shown) [Compound 9, 1-ethyl-3-[5-[4-(1-hydroxyethyl)triazol-1-yl]-7-(2-pyridyl)-1,3-benzothiazol-2-yl]urea] | 8 (≈ 19.5 µM) | ≤ 1 |  | 
16 | CCNC(=O)Nc1nc2cc(-c3cnc(C(C)(C)O)nc3)cc(-c3ncc(CN4CCOCC4)cn3)c2s1 [Compound 120, 1-ethyl-3-[5-[2-(1-hydroxy-1-methyl-ethyl)pyrimidin-5-yl]-7-[5-(morpholinomethyl)pyrimidin-2-yl]-1,3-benzothiazol-2-yl]urea] | ≤ 1 | ≤ 1 |  | 
17 | CCNC(=O)Nc1nc2cc(-c3cnc(C(C)O)nc3)cc(-c3nccc(N4CC(O)C4)n3)c2s1 (stereo not shown) [Compound 105, 1-ethyl-3-[7-[4-(3-hydroxyazetidin-1-yl)pyrimidin-2-yl]-5-[2-(1-hydroxyethyl)pyrimidin-5-yl]-1,3-benzothiazol-2-yl]urea] | 16 (≈ 32.5 µM) | ≤ 1 |  | 
18 | CCNC(=O)Nc1nc2cc(-c3cnc(C(C)O)nc3)cc(-c3cc(C[S+](C)[O-])ccn3)c2s1 (stereo not shown) [Compound 16, 1-ethyl-3-[5-[2-(1-hydroxyethyl)pyrimidin-5-yl]-7-[4-(methylsulfinylmethyl)-2-pyridyl]-1,3-benzothiazol-2-yl]urea] | 2 (≈ 4.03 µM) | ≤ 1 |  | 
19 | CCNC(=O)Nc1nc2cc(-c3cnc(C(C)O)nc3)cc(-c3cc(CN4CCC[C@H]4C(=O)O)ccn3)c2s1 (stereo partly drawn) [Compound 72, (2S)-1-[[2-[2-(ethylcarbamoylamino)-5-[2-(1-hydroxyethyl)pyrimidin-5-yl]-1,3-benzothiazol-7-yl]-4-pyridyl]methyl]pyrrolidine-2-carboxylic acid] | 8 (≈ 14.6 µM) | 8 (≈ 14.6 µM) |  | 
20 | CCNC(=O)Nc1nc2cc(-c3cnc(C(C)(C)O)nc3)c(OC)cc2s1 [Compound 176, 1-ethyl-3-[5-[2-(1-hydroxy-1-methyl-ethyl)pyrimidin-5-yl]-6-methoxy-1,3-benzothiazol-2-yl]urea] | ≤ 1 | ≤ 1 |  | 
21 | CCNC(=O)Nc1nc2cc(-c3cnc(C(C)(C)O)nc3)cc(-c3cc(CN4CCCC4)ccn3)c2s1 [Compound 26, 1-ethyl-3-[5-[2-(1-hydroxy-1-methyl-ethyl)pyrimidin-5-yl]-7-[4-(pyrrolidin-1-ylmethyl)-2-pyridyl]-1,3-benzothiazol-2-yl]urea] | ≤ 1 | ≤ 1 |  | 
22 | CCNC(=O)Nc1nc2cc(-c3cnc(C(C)(C)OC(=O)N4CCN(C)CC4)nc3)cc(-c3ccccn3)c2s1 [Compound 89, [1-[5-[2-(ethylcarbamoylamino)-7-(2-pyridyl)-1,3-benzothiazol-5-yl]pyrimidin-2-yl]-1-methyl-ethyl] 4-methylpiperazine-1-carboxylate] | 8 (≈ 14.3 µM) | 2 (≈ 3.57 µM) |  | 
23 | CCNC(=O)Nc1nc2cc(-c3cnc(C(C)(C)O)nc3)c(OCCOC)cc2s1 [Compound 183, 1-ethyl-3-[5-[2-(1-hydroxy-1-methyl-ethyl)pyrimidin-5-yl]-6-(2-methoxyethoxy)-1,3-benzothiazol-2-yl]urea] | ≤ 1 | ≤ 1 |  | 
24 | 1-ethyl-3-[7-[4-(4-ethylpiperazin-1-yl)pyridin-2-yl]-5-[2-(1-hydroxy-1-methyl-ethyl)pyrimidin-5-yl]-1,3-benzothiazol-2-yl]urea [Compound 79] |  |  | 2 | 2
25 | CCNC(=O)Nc1nc2cc(-c3cnc(C(C)(C)OC(=O)CCC(=O)OC)nc3)cc(-c3ccccn3)c2s1 [Compound 20, O4-[1-[5-[2-(ethylcarbamoylamino)-7-(2-pyridyl)-1,3-benzothiazol-5-yl]pyrimidin-2-yl]-1-methyl-ethyl] O1-methyl butanedioate] | 2 (≈ 3.65 µM) | ≤ 1 |  | 
26 | CCNC(=O)Nc1nc2cc(-c3cnc(C(C)O)nc3)cc(-c3cc(CN4CC(O)C4)ccn3)c2s1 (stereo not shown) [Compound 65, 1-ethyl-3-[7-[4-[(3-hydroxyazetidin-1-yl)methyl]-2-pyridyl]-5-[2-(1-hydroxyethyl)pyrimidin-5-yl]-1,3-benzothiazol-2-yl]urea] | 2 (≈ 3.96 µM) | ≤ 1 |  | 
27 | CCNC(=O)Nc1nc2cc(-c3cnc(C(C)O)nc3)cc(-c3cc(CN4CCC(C)(O)C4)ccn3)c2s1 (stereo not shown) [Compound 84, 1-ethyl-3-[5-[2-(1-hydroxyethyl)pyrimidin-5-yl]-7-[4-[(3-hydroxy-3-methyl-pyrrolidin-1-yl)methyl]-2-pyridyl]-1,3-benzothiazol-2-yl]urea] | ≤ 1 | ≤ 1 |  | 
28 | CCNC(=O)Nc1nc2cc(-c3cnc(C(C)(C)O)nc3)cc(-c3cc(CN4CCCC(F)(F)C4)ccn3)c2s1 [Compound 37, 1-[7-[4-[(3,3-difluoro-1-piperidyl)methyl]-2-pyridyl]-5-[2-(1-hydroxy-1-methyl-ethyl)pyrimidin-5-yl]-1,3-benzothiazol-2-yl]-3-ethyl-urea] | ≤ 1 | ≤ 1 |  | 
29 | CCNC(=O)Nc1nc2cc(-c3cnc(C4(O)CCCCC4)nc3)cc(-c3ccccn3)c2s1 [Compound 47, 1-ethyl-3-[5-[2-(1-hydroxycyclohexyl)pyrimidin-5-yl]-7-(2-pyridyl)-1,3-benzothiazol-2-yl]urea] | 8 (≈ 16.9 µM) | 8 (≈ 16.9 µM) |  | 
